Laboratory results: ChEMBL document CHEMBL3779770, “Synthesis, biological evaluation and molecular docking study of some novel indole and pyridine based 1,3,4-oxadiazole derivatives as potential antitubercular agents” (Bioorg Med Chem Lett, 2016)
Values after ≈ are worked out from the molar mass of the structure shown.

Key:
Escherichia coli = assay: Antibacterial activity against Escherichia coli NCIM 2688 after 8 hrs; type: functional, organism-based; conditions: NCIM 2688, 8 h
[1] = (§1) Cytotoxicity against human HeLa cells after 72 hrs by MTT assay; type: cell-based; conditions: HeLa cells
HeLa = assay: as §1; type: cell-based; conditions: hela, 72 h
[2] = system: Mycobacterium tuberculosis; assay: Antitubercular activity against active state Mycobacterium tuberculosis H37Ra assessed as viable cells after 8 days by XTT reduction menadione assay; type: functional, organism-based; conditions: 192 h
[3] = Cytotoxicity against human PANC1 cells after 48 hrs by MTT assay; type: cell-based, PANC-1; conditions: for GI50 at 48 h: PANC1 cells; for GI90: panc-1, 48 h
Pseudomonas fluorescens = assay: Antibacterial activity against Pseudomonas fluorescens NCIM 2036 after 8 hrs; type: functional, organism-based; conditions: NCIM 2036, 8 h
Bacillus subtilis = assay: Antibacterial activity against Bacillus subtilis NCIM 2079 after 12 hrs; type: functional, organism-based; conditions: NCIM 2079, 12 h
[4] = (§2) Cytotoxicity against human A549 cells after 48 hrs by MTT assay; type: cell-based; conditions: A549 cells
A549 = assay: as §2; type: cell-based; conditions: a549, 48 h
Staphylococcus aureus = assay: Antibacterial activity against Staphylococcus aureus NCIM 2010 after 12 hrs; type: functional, organism-based; conditions: NCIM 2010, 12 h
[5] = system: Mycobacterium tuberculosis; assay: Antitubercular activity against dormant state Mycobacterium tuberculosis H37Ra assessed as viable cells after 12 days by XTT reduction menadione assay; type: functional, organism-based; conditions: 288 h

Structure (SMILES)	IC50 (Escherichia coli) [µg/mL]	MIC (Escherichia coli) [µg/mL]	GI50 at 72 h [1] [µg/mL]	GI90 (HeLa) [µg/mL]	IC50 [2] [µg/mL]	MIC [2] [µg/mL]	GI50 at 48 h [3] [µg/mL]	GI90 [3] [µg/mL]	IC50 (Pseudomonas fluorescens) [µg/mL]	MIC (Pseudomonas fluorescens) [µg/mL]	IC50 (Bacillus subtilis) [µg/mL]	MIC (Bacillus subtilis) [µg/mL]	GI50 at 48 h [4] [µg/mL]	GI90 (A549) [µg/mL]	IC50 (Staphylococcus aureus) [µg/mL]	MIC (Staphylococcus aureus) [µg/mL]	IC50 [5] [µg/mL]	MIC [5] [µg/mL]
O=C(/C=C\c1cccc(O)c1)N1N=C(c2ccncc2)OC1c1c[nH]c2ccccc12 (stereo not given)	16.6 (≈ 40.6 µM)	49.2 (≈ 120 µM)	> 30	> 30	> 30	> 30	> 30	> 30	17.4 (≈ 42.5 µM)	82.8 (≈ 202 µM)	19.8 (≈ 48.4 µM)	121 (≈ 295 µM)	> 30	> 30	18.2 (≈ 44.5 µM)	84.4 (≈ 206 µM)	> 30	> 30
O=C(/C=C\c1ccc(O)cc1)N1N=C(c2ccncc2)OC1c1c[nH]c2ccccc12 (stereo not given)	> 256	> 256	> 30	> 30	> 30	> 30	> 30	> 30	45 (≈ 110 µM)	> 256	> 256	> 256	> 30	> 30	> 256	> 256	> 30	> 30
COc1ccc(/C=C\C(=O)N2N=C(c3ccncc3)OC2c2c[nH]c3ccccc23)cc1 (stereo not given)	14 (≈ 33 µM)	182 (≈ 429 µM)	> 30	> 30	> 30	> 30	> 30	> 30	15.7 (≈ 37 µM)	101 (≈ 239 µM)	15.7 (≈ 37 µM)	156 (≈ 369 µM)	> 30	> 30	7.72 (≈ 18.2 µM)	88.1 (≈ 208 µM)	> 30	> 30
O=C(/C=C\c1ccccc1Cl)N1N=C(c2ccncc2)OC1c1c[nH]c2ccccc12 (stereo not given)	1.73 (≈ 4.03 µM)	27.6 (≈ 64.3 µM)	> 30	> 30	11.6 (≈ 27.1 µM)	> 30	> 30	> 30	2.53 (≈ 5.9 µM)	25.2 (≈ 58.7 µM)	4.13 (≈ 9.63 µM)	22 (≈ 51.3 µM)	> 30	> 30	3.33 (≈ 7.76 µM)	29.2 (≈ 68 µM)	> 30	> 30
O=C(/C=C\c1ccc(F)cc1)N1N=C(c2ccncc2)OC1c1c[nH]c2ccccc12 (stereo not given)	13.6 (≈ 33 µM)	> 256	> 30	> 30	> 30	> 30	> 30	> 30	7.33 (≈ 17.8 µM)	> 256	15.6 (≈ 37.8 µM)	> 256	> 30	> 30	12.9 (≈ 31.3 µM)	> 256	> 30	> 30
O=C(/C=C\c1cccc([N+](=O)[O-])c1)N1N=C(c2ccncc2)OC1c1c[nH]c2ccccc12 (stereo not given)	19.2 (≈ 43.7 µM)	174 (≈ 395 µM)	> 30	> 30	> 30	> 30	> 30	> 30	20.9 (≈ 47.5 µM)	55.7 (≈ 127 µM)	22.4 (≈ 51 µM)	86 (≈ 196 µM)	> 30	> 30	21.7 (≈ 49.3 µM)	93.2 (≈ 212 µM)	> 30	> 30
Cc1ccc(/C=C\C(=O)N2N=C(c3ccncc3)OC2c2c[nH]c3ccccc23)cc1 (stereo not given)	3.33 (≈ 8.15 µM)	7.86 (≈ 19.2 µM)	> 30	> 30	> 30	> 30	> 30	> 30	4.13 (≈ 10.1 µM)	8.66 (≈ 21.2 µM)	6.53 (≈ 16 µM)	10.3 (≈ 25.1 µM)	> 30	> 30	5.73 (≈ 14 µM)	9.46 (≈ 23.2 µM)	> 30	> 30
O=C(/C=C\c1ccccc1)N1N=C(c2ccncc2)OC1c1c[nH]c2ccccc12 (stereo not given)	10.3 (≈ 26 µM)	50.5 (≈ 128 µM)	> 30	> 30	28.7 (≈ 72.8 µM)	> 30	> 30	> 30	11.1 (≈ 28 µM)	51.3 (≈ 130 µM)	12.7 (≈ 32.1 µM)	45.4 (≈ 115 µM)	> 30	> 30	11.9 (≈ 30.1 µM)	42.2 (≈ 107 µM)	> 30	> 30
O=C(/C=C\c1ccccc1F)N1N=C(c2ccncc2)OC1c1c[nH]c2ccccc12 (stereo not given)	25.6 (≈ 62 µM)	> 256	> 30	> 30	> 30	> 30	> 30	> 30	26.4 (≈ 64 µM)	> 256	32 (≈ 77.5 µM)	> 256	> 30	> 30	28.8 (≈ 69.8 µM)	202 (≈ 489 µM)	> 30	> 30
O=C(/C=C\c1cccc(F)c1)N1N=C(c2ccncc2)OC1c1c[nH]c2ccccc12 (stereo not given)	> 256	> 256	> 30	> 30	> 30	> 30	> 30	> 30	> 256	> 256	> 256	> 256	> 30	> 30	> 256	> 256	> 30	> 30
O=C(/C=C\c1cccc(Cl)c1)N1N=C(c2ccncc2)OC1c1c[nH]c2ccccc12 (stereo not given)	14 (≈ 32.6 µM)	> 256	> 30	> 30	2.54 (≈ 5.92 µM)	> 30	> 30	> 30	12.1 (≈ 28.3 µM)	> 256	19.3 (≈ 45 µM)	> 256	> 30	> 30	14.5 (≈ 33.9 µM)	> 256	> 30	> 30
CC1(C)S[C@@H]2[C@H](NC(=O)[C@H](N)c3ccccc3)C(=O)N2[C@H]1C(=O)O [AMPICILLIN]	0.086 (≈ 0.246 µM)	1.46 (≈ 4.18 µM)	–	–	–	–	–	–	1.87 (≈ 5.35 µM)	4.36 (≈ 12.5 µM)	3.15 (≈ 9.02 µM)	10.3 (≈ 29.5 µM)	–	–	0.42 (≈ 1.2 µM)	1 (≈ 2.86 µM)	–	–
NC[C@H]1O[C@H](O[C@H]2[C@H](O)[C@@H](O[C@H]3O[C@H](CO)[C@@H](O)[C@H](N)[C@H]3O)[C@H](N)C[C@@H]2N)[C@H](O)[C@@H](O)[C@@H]1O [KANAMYCIN]	0.13 (≈ 0.268 µM)	1.62 (≈ 3.34 µM)	–	–	–	–	–	–	0.014 (≈ 0.0289 µM)	0.49 (≈ 1.01 µM)	0.37 (≈ 0.764 µM)	1.35 (≈ 2.79 µM)	–	–	> 30	> 33	–	–
CC(=O)O[C@H]1C(=O)[C@@]2(C)[C@H]([C@H](OC(=O)c3ccccc3)[C@]3(O)C[C@H](OC(=O)[C@H](O)[C@@H](NC(=O)c4ccccc4)c4ccccc4)C(C)=C1C3(C)C)[C@]1(OC(C)=O)CO[C@@H]1C[C@@H]2O [PACLITAXEL]	–	–	0.005 (≈ 0.00586 µM)	0.075 (≈ 0.0878 µM)	–	–	0.0038 (≈ 0.00445 µM)	0.078 (≈ 0.0913 µM)	–	–	–	–	0.12 (≈ 0.141 µM)	5.88 (≈ 6.89 µM)	–	–	–	–
